ChEMBL document CHEMBL4190187, “Discovery of pyrazolopyrimidine derivatives as novel inhibitors of ataxia telangiectasia and rad3 related protein (ATR)” (Bioorg Med Chem Lett, 2017)

Columns and labels:
[1] = target: Beta-adrenergic receptor kinase 1 (Homo sapiens) (UniProt P25098); experiment: Inhibition of recombinant full-length human GRK2 at 1 uM using casein as substrate after 40 mins in presence of [gamma-33P]ATP by scintillation counting method
[2] = target: Phosphatidylinositol 3-kinase C2 domain-containing subunit gamma (Homo sapiens) (UniProt O75747); experiment: Inhibition of recombinant human PI3KC2gamma (468 to 1203 residues) at 1 uM phosphatidylinositol/phosphatidylserine as substrate after 40 mins in presence of [gamma-33P]ATP by scintillation counting method
[3] = target: Tyrosine-protein kinase Yes (Homo sapiens) (UniProt P07947); experiment: Inhibition of recombinant full-length human Yes at 1 uM using poly(Glu,Tyr) 4:1 as substrate after 40 mins in presence of [gamma-33P]ATP by scintillation counting method
[4] = target: Activin receptor type-2A (Homo sapiens) (UniProt P27037); experiment: Inhibition of recombinant human ACTR2 (162 to end residues) at 1 uM using casein as substrate after 120 mins in presence of [gamma-33P]ATP by scintillation counting method
[5] = target: Inhibitor of nuclear factor kappa-B kinase subunit beta (Homo sapiens) (UniProt O14920); experiment: Inhibition of recombinant full-length human IKKbeta at 1 uM using peptide as substrate after 40 mins in presence of [gamma-33P]ATP by scintillation counting method
[6] = target: Serine/threonine-protein kinase D2 (Homo sapiens) (UniProt Q9BZL6); experiment: Inhibition of recombinant full-length human PKD2 at 1 uM using KKLNRTLSVA as substrate after 40 mins in presence of [gamma-33P]ATP by scintillation counting method
[7] = target: Rhodopsin kinase GRK7 (Homo sapiens) (UniProt Q8WTQ7); experiment: Inhibition of recombinant full-length human GRK7 at 1 uM using casein as substrate after 40 mins in presence of [gamma-33P]ATP by scintillation counting method
[8] = target: Protein kinase C epsilon type (Homo sapiens) (UniProt Q02156); experiment: Inhibition of recombinant human PKCepsilon (2 to end residues) at 1 uM using ERMRPRKRQGSVRRRV as substrate after 40 mins in presence of [gamma-33P]ATP by scintillation counting method
[9] = target: Serine/threonine-protein kinase 32A (Homo sapiens) (UniProt Q8WU08); experiment: Inhibition of recombinant full-length human STK32A at 1 uM using casein as substrate after 120 mins in presence of [gamma-33P]ATP by scintillation counting method
[10] = target: Receptor tyrosine-protein kinase erbB-2 (Homo sapiens) (UniProt P04626); experiment: Inhibition of recombinant human ErbB2 (676 to end residues) at 1 uM using poly(Glu,Tyr) 4:1 as substrate after 40 mins in presence of [gamma-33P]ATP by scintillation counting method
[11] = target: 3-phosphoinositide-dependent protein kinase 1 (Homo sapiens) (UniProt O15530); experiment: Inhibition of recombinant human PDK1 (52 to end residues) at 1 uM using KTFCGTPEYLAPEVRREPRILSEEEQEMFRDFDYIADWC (PDKtide) as substrate after 40 mins in presence of [gamma-33P]ATP by scintillation counting method
[12] = target: Receptor-interacting serine/threonine-protein kinase 2 (Homo sapiens) (UniProt O43353); experiment: Inhibition of recombinant human RIPK2 (1 to 299 residues) at 1 uM using myelin basic protein as substrate after 120 mins in presence of [gamma-33P]ATP by scintillation counting method
[13] = tested on: Hepatocyte growth factor receptor (Homo sapiens), P08581 [D1246H]; experiment: Inhibition of recombinant human Met D1246H mutant (974 to end residues) at 1 uM using KKKGQEEEYVFIE as substrate after 40 mins in presence of [gamma-33P]ATP by scintillation counting method
[14] = tested on: Tyrosine-protein kinase ABL1 (Homo sapiens), P00519 [Q252H]; experiment: Inhibition of recombinant human Abl Q252H mutant (27 to end residues) at 1 uM using EAIYAAPFAKKK as substrate after 40 mins in presence of [gamma-33P]ATP by scintillation counting method
[15] = target: NT-3 growth factor receptor (Homo sapiens) (UniProt Q16288); experiment: Inhibition of recombinant human TrkC (510 to end residues) at 1 uM using GEEPLYWSFPAKKK as substrate after 40 mins in presence of [gamma-33P]ATP by scintillation counting method
[16] = target: Serine/threonine-protein kinase ULK2 (Homo sapiens) (UniProt Q8IYT8); experiment: Inhibition of recombinant human ULK2 (1 to 306 residues) at 1 uM using casein as substrate after 40 mins in presence of [gamma-33P]ATP by scintillation counting method
[17] = target: Phosphatidylinositol 4,5-bisphosphate 3-kinase catalytic subunit gamma isoform (Homo sapiens) (UniProt P48736); experiment: Inhibition of recombinant full-length human p120g at 1 uM using phosphatidylinositol-4,5-bisphosphate as substrate after 40 mins in presence of [gamma-33P]ATP by scintillation counting method
[18] = target: Dual specificity protein kinase CLK1 (Homo sapiens) (UniProt P49759); experiment: Inhibition of recombinant human CLK1 (130 to end residues) at 1 uM using ERMRPRKRQGSVRRRV as substrate after 40 mins in presence of [gamma-33P]ATP by scintillation counting method
[19] = target: Platelet-derived growth factor receptor alpha (Homo sapiens) (UniProt P16234); experiment: Inhibition of recombinant human PDGFRalpha (550 to end residues) at 1 uM using poly(Glu,Tyr) 4:1 as substrate after 40 mins in presence of [gamma-33P]ATP by scintillation counting method
[20] = target: Phosphatidylinositol 4-phosphate 5-kinase type-1 alpha (Homo sapiens) (UniProt Q99755); experiment: Inhibition of recombinant full-length human PIP5K1alpha at 1 uM using phosphatidylinositol 4-phosphate/phosphatidylserine as substrate after 40 mins in presence of [gamma-33P]ATP by scintillation counting method
[21] = target: Ephrin type-A receptor 8 (Homo sapiens) (UniProt P29322); experiment: Inhibition of recombinant human EPHA8 (615 to 911 residues) at 1 uM using KTFCGTPEYLAPEVRREPRILSEEEQEMFRDFDYIADWC as substrate after 40 mins in presence of [gamma-33P]ATP by scintillation counting method
[22] = target: Tyrosine-protein kinase SYK (Homo sapiens) (UniProt P43405); experiment: Inhibition of recombinant full-length human Syk at 1 uM using poly(Glu,Tyr) 4:1 as substrate after 40 mins in presence of [gamma-33P]ATP by scintillation counting method
[23] = target: Dual specificity mitogen-activated protein kinase kinase 4 (Mus musculus) (UniProt P47809); experiment: Inhibition of recombinant mouse MKK4 (34 to end residues) at 1 uM using inactive JNK1a1 as substrate after 40 mins in presence of [gamma-33P]ATP by scintillation counting method
[24] = target: G protein-coupled receptor kinase 5 (Homo sapiens) (UniProt P34947); experiment: Inhibition of recombinant full-length human GRK5 at 1 uM using casein as substrate after 40 mins in presence of [gamma-33P]ATP by scintillation counting method
Sequence of G protein-coupled receptor kinase 5 (Homo sapiens) (P34947 whole entry, looked up): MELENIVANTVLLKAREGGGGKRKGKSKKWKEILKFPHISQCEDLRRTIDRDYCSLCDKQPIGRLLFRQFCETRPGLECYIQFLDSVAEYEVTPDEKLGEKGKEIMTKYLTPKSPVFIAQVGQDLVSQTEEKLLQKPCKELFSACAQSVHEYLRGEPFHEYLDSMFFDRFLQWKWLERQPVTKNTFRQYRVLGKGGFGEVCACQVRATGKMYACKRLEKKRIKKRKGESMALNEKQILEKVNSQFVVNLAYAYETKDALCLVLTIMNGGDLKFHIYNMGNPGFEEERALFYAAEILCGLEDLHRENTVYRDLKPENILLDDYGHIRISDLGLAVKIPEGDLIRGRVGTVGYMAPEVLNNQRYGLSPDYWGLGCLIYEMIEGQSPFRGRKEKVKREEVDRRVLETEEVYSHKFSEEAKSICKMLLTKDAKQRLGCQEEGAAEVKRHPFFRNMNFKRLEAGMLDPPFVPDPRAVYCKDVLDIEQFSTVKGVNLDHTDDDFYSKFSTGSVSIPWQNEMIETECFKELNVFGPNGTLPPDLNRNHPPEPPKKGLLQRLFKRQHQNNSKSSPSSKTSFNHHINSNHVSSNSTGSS

Sequence of Platelet-derived growth factor receptor alpha (Homo sapiens) (P16234 whole entry): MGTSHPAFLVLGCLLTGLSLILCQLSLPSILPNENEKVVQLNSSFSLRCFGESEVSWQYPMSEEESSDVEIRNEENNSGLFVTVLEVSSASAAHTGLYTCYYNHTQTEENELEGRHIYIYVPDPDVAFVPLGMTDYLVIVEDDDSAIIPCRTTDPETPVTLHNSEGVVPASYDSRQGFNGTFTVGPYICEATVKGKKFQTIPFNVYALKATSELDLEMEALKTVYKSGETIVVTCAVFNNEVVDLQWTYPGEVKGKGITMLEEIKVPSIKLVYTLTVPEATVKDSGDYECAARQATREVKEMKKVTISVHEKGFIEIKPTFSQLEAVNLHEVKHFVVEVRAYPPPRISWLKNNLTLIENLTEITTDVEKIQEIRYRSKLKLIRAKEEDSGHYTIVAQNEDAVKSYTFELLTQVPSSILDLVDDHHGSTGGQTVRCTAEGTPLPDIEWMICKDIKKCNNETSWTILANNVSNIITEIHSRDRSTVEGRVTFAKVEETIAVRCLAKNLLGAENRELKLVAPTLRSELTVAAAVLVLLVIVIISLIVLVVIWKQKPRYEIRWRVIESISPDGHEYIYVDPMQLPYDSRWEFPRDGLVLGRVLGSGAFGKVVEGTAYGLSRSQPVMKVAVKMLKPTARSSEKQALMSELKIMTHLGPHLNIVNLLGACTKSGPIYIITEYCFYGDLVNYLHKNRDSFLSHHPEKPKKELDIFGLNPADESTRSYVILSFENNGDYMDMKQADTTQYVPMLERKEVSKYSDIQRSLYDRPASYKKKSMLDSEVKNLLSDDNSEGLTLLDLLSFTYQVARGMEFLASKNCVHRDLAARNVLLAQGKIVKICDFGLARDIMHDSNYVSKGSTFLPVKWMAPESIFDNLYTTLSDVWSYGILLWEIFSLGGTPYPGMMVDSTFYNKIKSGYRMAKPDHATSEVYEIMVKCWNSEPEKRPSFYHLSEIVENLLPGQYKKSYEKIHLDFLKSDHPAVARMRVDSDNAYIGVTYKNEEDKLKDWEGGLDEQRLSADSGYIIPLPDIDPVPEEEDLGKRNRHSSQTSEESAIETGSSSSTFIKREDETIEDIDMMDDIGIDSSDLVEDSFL
Sequence of NT-3 growth factor receptor (Homo sapiens) (Q16288 32-839 limits assumed): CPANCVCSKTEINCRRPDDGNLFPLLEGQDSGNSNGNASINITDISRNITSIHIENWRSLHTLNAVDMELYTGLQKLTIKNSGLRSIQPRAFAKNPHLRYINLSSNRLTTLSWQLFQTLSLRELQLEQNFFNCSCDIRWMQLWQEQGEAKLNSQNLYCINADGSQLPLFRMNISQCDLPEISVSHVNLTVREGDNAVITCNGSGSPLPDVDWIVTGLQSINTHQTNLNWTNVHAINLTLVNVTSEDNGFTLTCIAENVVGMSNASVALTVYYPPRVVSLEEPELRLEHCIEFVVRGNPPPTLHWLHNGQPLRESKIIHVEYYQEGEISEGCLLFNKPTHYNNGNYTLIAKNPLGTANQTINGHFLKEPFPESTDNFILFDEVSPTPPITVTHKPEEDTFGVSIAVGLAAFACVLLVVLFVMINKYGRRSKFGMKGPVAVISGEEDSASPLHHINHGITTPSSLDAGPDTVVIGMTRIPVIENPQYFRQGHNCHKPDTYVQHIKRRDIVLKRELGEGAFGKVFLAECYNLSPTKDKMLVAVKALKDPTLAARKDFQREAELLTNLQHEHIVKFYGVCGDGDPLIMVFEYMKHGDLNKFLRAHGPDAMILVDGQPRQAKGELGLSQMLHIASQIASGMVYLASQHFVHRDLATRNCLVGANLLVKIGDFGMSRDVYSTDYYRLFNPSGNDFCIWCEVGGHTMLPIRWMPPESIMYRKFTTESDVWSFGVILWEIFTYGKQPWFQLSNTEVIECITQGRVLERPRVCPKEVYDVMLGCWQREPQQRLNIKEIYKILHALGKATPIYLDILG
Sequence of Dual specificity protein kinase CLK1 (Homo sapiens) (P49759 whole entry, looked up): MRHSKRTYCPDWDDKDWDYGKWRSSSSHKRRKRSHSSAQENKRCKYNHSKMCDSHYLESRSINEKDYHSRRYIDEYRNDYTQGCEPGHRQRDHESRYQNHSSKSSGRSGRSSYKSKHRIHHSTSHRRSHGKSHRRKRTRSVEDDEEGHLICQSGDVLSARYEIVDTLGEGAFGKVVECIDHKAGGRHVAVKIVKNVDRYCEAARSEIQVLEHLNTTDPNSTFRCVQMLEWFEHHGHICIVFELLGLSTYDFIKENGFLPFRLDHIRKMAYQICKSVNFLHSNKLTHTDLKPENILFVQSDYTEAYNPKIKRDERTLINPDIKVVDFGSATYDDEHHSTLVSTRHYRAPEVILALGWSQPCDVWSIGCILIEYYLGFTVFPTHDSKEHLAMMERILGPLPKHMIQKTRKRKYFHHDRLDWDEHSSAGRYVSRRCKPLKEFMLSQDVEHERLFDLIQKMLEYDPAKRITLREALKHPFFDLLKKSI
Sequence of Serine/threonine-protein kinase D2 (Homo sapiens) (Q9BZL6 whole entry): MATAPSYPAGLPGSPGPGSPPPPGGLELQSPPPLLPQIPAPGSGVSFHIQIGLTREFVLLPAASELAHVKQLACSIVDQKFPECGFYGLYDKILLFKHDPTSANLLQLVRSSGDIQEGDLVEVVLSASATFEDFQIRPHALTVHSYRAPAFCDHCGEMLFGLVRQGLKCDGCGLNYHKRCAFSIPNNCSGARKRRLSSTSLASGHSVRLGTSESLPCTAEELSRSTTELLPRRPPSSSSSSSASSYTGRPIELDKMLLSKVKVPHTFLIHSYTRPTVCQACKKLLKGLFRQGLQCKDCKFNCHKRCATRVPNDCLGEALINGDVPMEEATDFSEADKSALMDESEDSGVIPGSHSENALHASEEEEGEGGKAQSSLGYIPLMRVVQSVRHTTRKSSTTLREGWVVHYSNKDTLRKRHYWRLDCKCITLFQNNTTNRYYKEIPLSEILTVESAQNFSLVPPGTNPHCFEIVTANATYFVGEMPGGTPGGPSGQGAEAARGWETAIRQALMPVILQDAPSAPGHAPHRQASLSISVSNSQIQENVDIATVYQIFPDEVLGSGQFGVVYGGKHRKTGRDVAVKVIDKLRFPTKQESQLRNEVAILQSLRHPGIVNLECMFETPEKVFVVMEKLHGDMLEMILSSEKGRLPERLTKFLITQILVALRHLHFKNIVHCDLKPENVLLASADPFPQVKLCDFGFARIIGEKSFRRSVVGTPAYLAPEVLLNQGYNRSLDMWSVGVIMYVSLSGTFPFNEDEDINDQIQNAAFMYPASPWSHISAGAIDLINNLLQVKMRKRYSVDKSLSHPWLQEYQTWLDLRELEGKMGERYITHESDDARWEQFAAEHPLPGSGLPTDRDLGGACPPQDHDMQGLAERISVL
Sequence of Inhibitor of nuclear factor kappa-B kinase subunit beta (Homo sapiens) (O14920 whole entry): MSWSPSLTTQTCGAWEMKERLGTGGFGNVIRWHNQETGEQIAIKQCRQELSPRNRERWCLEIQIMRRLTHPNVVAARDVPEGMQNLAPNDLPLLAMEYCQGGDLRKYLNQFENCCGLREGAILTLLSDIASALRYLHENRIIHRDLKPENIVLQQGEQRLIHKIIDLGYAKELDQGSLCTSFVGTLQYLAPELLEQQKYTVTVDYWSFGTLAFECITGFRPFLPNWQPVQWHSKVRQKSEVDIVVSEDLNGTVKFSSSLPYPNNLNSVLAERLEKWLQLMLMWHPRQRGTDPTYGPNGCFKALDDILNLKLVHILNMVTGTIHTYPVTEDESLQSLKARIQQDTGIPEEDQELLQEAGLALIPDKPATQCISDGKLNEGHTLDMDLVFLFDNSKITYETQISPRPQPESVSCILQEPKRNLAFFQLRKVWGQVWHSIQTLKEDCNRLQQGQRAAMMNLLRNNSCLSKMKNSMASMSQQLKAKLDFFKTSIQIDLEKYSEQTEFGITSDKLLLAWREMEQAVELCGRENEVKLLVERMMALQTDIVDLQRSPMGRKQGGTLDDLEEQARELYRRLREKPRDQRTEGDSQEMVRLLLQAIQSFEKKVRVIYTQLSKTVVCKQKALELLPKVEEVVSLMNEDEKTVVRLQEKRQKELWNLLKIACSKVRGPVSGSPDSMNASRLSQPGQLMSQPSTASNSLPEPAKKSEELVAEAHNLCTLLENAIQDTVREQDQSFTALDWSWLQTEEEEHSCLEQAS
Sequence of Serine/threonine-protein kinase 32A (Homo sapiens) (Q8WU08 whole entry): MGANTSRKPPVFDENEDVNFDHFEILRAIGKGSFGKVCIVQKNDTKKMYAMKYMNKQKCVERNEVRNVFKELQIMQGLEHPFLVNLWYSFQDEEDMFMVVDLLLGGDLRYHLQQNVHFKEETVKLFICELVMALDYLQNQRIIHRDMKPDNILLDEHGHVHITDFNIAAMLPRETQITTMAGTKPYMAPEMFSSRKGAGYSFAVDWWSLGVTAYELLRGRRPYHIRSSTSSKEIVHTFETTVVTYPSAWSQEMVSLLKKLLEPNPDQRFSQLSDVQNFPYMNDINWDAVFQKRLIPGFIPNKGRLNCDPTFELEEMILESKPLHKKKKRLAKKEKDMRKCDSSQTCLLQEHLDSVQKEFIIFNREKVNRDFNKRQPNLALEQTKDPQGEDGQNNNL

CS(=O)(=O)c1ccc(-n2nc(-c3cnc4[nH]ccc4c3)c3c(N)ncnc32)cc1
inhibition [1]: 5% | inhibition [2]: 15% | inhibition [3]: 92% | inhibition [4]: 6% | inhibition [5]: -3% | inhibition [6]: 17% | inhibition [7]: -3% | inhibition [8]: 2% | inhibition [9]: 6% | inhibition [10]: 6% | inhibition [11]: -6% | inhibition [12]: 70% | inhibition [13]: 1% | inhibition [14]: 70% | inhibition [15]: 2% | inhibition [16]: 5% | inhibition [17]: 10% | inhibition [18]: 10% | inhibition [19]: -6% | inhibition [20]: 2% | inhibition [21]: 15% | inhibition [22]: 7% | inhibition [23]: 10% | inhibition [24]: -1%
